Here are results for 10 molecules from patent US20080280937A1, “Ligand Conjugates of Vinca Alkaloids, Analogs, and Derivatives” (priority 2005, published 2008).

pIC50: −log10 of the molar value. “And” between values parts separate entries of the source, which are not always exact repeats. Equal values may be shown once. “Also recorded” adds a separate entry of the source. Read-outs that look alike come from different tables or passages of the source. Marks after values point to notes of the source that are not given here. A value given as a limit tells only on which side of the number the result lay.

Series [1] is described as follows: Animal Weight Determination. To be noted: for Weight Loss: nu/nu mice with KB tumors; for weight of Balb/c mice: 3 μmol/kg TIW for 3 weeks (FIG. 25B).
Description: Animal Weight Determination. The percentage weight change of the mice was determined in mice (5 mice/group) on the indicated days post-tumor inoculation (PTI) as shown in the graph for the samples described in the related tumor volume assay.
The next series deals with KB tumors. The format is in vivo, nu/nu mice. To be noted: for % T/C / LCK (log of cell kill): animals not showing complete response. The method, then:
Inhibition of Tumor Growth in Mice. The anti-tumor activity of the compounds described herein, when administered intravenously (i.v.) to tumor-bearing animals, was evaluated in nu/nu mice bearing subcutaneous KB tumors. Approximately 8 to 11 days post tumor inoculation in the subcutis of the right axilla with 1×10^6 KB cells (tumor volume range at t0=between 60 and 80 mm^3), mice (5/group) were injected i.v. three times a week (TIW), for a defined length of time (e.g., 2-3 weeks) with (a) a defined dose level on a per kilogram body weight basis of a drug delivery conjugate described herein, or (b) an equivalent dose volume of PBS (control). Tumor growth was measured using calipers at 2-day or 3-day intervals in each treatment group. Tumor volumes were calculated using the equation V=a×b^2/2, where “a” is the length of the tumor and “b” is the width expressed in millimeters.

The subject of series [2] is folate receptor-positive KB cells. The format is cell-based, human. To be noted: for competition by excess folic acid of effect on 3H-thymidine incorporation: with versus without at least 100-fold excess of folic acid. As for the experimental part:
Inhibition of Cellular DNA Synthesis. The compounds described herein were evaluated using an in vitro cytotoxicity assay that predicts the ability of the drug to inhibit the growth of folate receptor-positive KB cells. The compounds were comprised of folate linked to a respective chemotherapeutic drug, as prepared according to the protocols described herein. The KB cells were exposed for predetermined periods of time at 37° C. to the indicated concentrations of folate-drug conjugate in the absence or presence of at least a 100-fold excess of folic acid. The cells were then rinsed with fresh culture medium and incubated in fresh culture medium for 72 hours at 37° C. Cell viability was assessed using a ^3H-thymidine incorporation assay.
In general terms: Dividing cells build labelled thymidine or BrdU into new DNA.

For a further series, the target named is T1, folate receptors (FRs) (Homo sapiens, UniProt P15328).
T1 construct: FR-positive KB cells were heavily seeded into 24-well cell culture plates; endogenous in cells; host or cells: KB cells
T1 sequence (P15328 25-234): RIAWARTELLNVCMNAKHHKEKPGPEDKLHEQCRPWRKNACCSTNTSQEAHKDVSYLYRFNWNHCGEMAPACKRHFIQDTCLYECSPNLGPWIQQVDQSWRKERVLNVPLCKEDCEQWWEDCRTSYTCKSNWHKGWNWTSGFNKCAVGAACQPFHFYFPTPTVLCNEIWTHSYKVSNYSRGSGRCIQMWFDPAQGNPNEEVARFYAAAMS
As to the kind of experiment: Relative Affinity Assay (displacement of 3H-folic acid on FR-positive KB cells). Format: binding. The settings on record: for Relative Folate Receptor Affinity: summary table; for relative binding affinity versus folic acid at folic acid receptors: figure legends, folic acid = 1.0, 1 hour at 37° C. As for the experimental part: Relative Affinity Assay. The affinity of the compounds described herein for folate receptors (FRs) relative to folate was determined according to a previously described method (Westerhof, G. R., J. H. Schornagel, et al. (1995) Mol. Pharm. 48: 459-471) with slight modification. Briefly, FR-positive KB cells were heavily seeded into 24-well cell culture plates and allowed to adhere to the plastic for 18 h. Spent incubation media was replaced in designated wells with folate-free RPMI (FFRPMI) supplemented with 100 nM ^3H-folic acid in the absence and presence of increasing concentrations of test article or folic acid. Cells were incubated for 60 min at 37° C. and then rinsed 3 times with PBS, pH 7.4, followed by the addition of 500 μL of 1% SDS in PBS, pH 7.4. Cell lysates were then collected and added to individual vials containing 5 mL of scintillation cocktail, and then counted for radioactivity. Negative control tubes contained only the ^3H-folic acid in FFRPMI (no competitor). Positive control tubes contained a final concentration of 1 mM folic acid, and CPMs measured in these samples (representing non-specific binding of label) were subtracted from all samples.
(In general: Displacement assays read how much labelled ligand stays bound in the presence of the test substance.)

The mark [3] stands for this setting: KB cells, without excess folic acid, read-out: IC50, 3H-thymidine incorporation in KB cells.

For `CC[C@]1(O)C[C@@H]2CN(CCc3c([nH]c4ccccc34)[C@@](C(=O)OC)(c3cc4c(cc3OC)N(C)[C@H]3[C@@](O)(C(=O)NN)[C@H](O)[C@]5(CC)C=CCN6CC[C@]43[C@@H]65)C2)C1` [DAVLBH, desacetylvinblastine hydrazide], the “Weight Loss” value in series [1] (0.5 μmol/kg TIW 2 wk) was 0%; in series [1] (0.75 μmol/kg TIW 2 wk) it was 0%; in series [1] (1 μmol/kg TIW 2 wk), above 10%; in series [1] (2 μmol/kg TIW 2 wk), above 20%. For the same molecule, the “CR (animals of 5 showing a complete response)” value with KB tumors (0.5 μmol/kg TIW 2 wk) is 0/5; in the series on KB tumors (0.75 μmol/kg TIW 2 wk), 0/5; with KB tumors (1 μmol/kg TIW 2 wk) it was 0/5; in the series with KB tumors (2 μmol/kg TIW 2 wk), 0/5^(d). Also, the “% T/C” value is 146% in the series on KB tumors (0.5 μmol/kg TIW 2 wk), 265% with KB tumors (0.75 μmol/kg TIW 2 wk) and 246% with KB tumors (1 μmol/kg TIW 2 wk). Also, the “LCK (log of cell kill)” value was found to be 0.6 with KB tumors (0.5 μmol/kg TIW 2 wk), 1.8 with KB tumors (0.75 μmol/kg TIW 2 wk) and 1.8 with KB tumors (1 μmol/kg TIW 2 wk). Besides, in the series on KB tumors (2 μmol/kg TIW 2 wk, 5 animals), the deaths result was “^(d)5 deaths”.

With `Nc1nc2ncc(CNc3ccc(C(=O)N[C@H](CCC(=O)NC[C@H](N)C(=O)N[C@@H](CC(=O)O)C(=O)N[C@@H](CS)C(=O)O)C(=O)O)cc3)nc2c(=O)[nH]1` [EC20], the “competition with Example 7 at folate receptors” value in the series with KB tumors (40 μmol/kg EC20 (rhenium complex) with 2 μmol/kg Example 7) is “acts as a competitor of Example 7 at folate receptors”.

For `CC[C@]1(O)C[C@H]2CN(CCc3c([nH]c4ccccc34)[C@@](C(=O)OC)(c3cc4c(cc3OC)N(C)[C@H]3[C@@](O)(C(=O)NNC(=O)OCCSSC[C@H](NC(=O)[C@H](CC(=O)O)NC(=O)[C@H](CC(=O)O)NC(=O)[C@H](CCCNC(=N)N)NC(=O)[C@H](CC(=O)O)NC(=O)CC[C@H](NC(=O)c5ccc(NCc6cnc7nc(N)[nH]c(=O)c7n6)cc5)C(=O)O)C(=O)O)[C@H](O)[C@]5(CC)C=CCN6CC[C@]43[C@@H]65)C2)C1` [Example 7], the pIC50 is 8.05 and ~7.80 in series [2] (setting [3]); above 7.00 in series [2] (summary table, read-out: IC50 KB Cells). Besides, on folate receptors (FRs), the “Relative Folate Receptor Affinity” value amounted to 0.17.

`CC[C@]1(O)C[C@H]2CN(CCc3c([nH]c4ccccc34)[C@@](C(=O)OC)(c3cc4c(cc3OC)N(C)[C@H]3[C@@](O)(C(=O)NNC(=O)OCCSSC[C@H](NC(=O)[C@H](CN)NC(=O)[C@H](CC(=O)O)NC(=O)[C@H](CC(=O)O)NC(=O)[C@H](CC(=O)O)NC(=O)CC[C@H](NC(=O)c5ccc(NCc6cnc7nc(N)[nH]c(=O)c7n6)cc5)C(=O)O)C(=O)O)[C@H](O)[C@]5(CC)C=CCN6CC[C@]43[C@@H]65)C2)C1` [Example 10]: the pIC50 in series [2] (setting [3]) is 7.24 and ~7.24. In series [2], the “competition by excess folic acid of effect on 3H-thymidine incorporation” value (from here on “competition by excess folic acid”) was “folate competes”. In addition, the “relative binding affinity versus folic acid at folic acid receptors” value at folate receptors (FRs) is listed as 0.24.

Consider `CC[C@]1(O)C[C@H]2CN(CCc3c([nH]c4ccccc34)[C@@](C(=O)OC)(c3cc4c(cc3OC)N(C)[C@H]3[C@@](O)(C(=O)NNC(=O)OCCSSC[C@H](NC(=O)[C@H](CC(=O)O)NC(=O)[C@H](CC(=O)O)NC(=O)[C@H](CCCNC(=N)N)NC(=O)[C@H](CC(=O)O)NC(=O)[C@H](CCC(=O)O)NC(=O)c5ccc(NCc6cnc7nc(N)[nH]c(=O)c7n6)cc5)C(=O)O)[C@H](O)[C@]5(CC)C=CCN6CC[C@]43[C@@H]65)C2)C1` [Example 11], for which the “weight of nu/nu mice” value in series [1] (2 μmol/kg TIW for 3 weeks (FIG. 26B)) is recorded as “little effect on the weight of the mice; also recorded: absence of an effect”.

Take `CC[C@]1(O)C[C@H]2CN(CCc3c([nH]c4ccccc34)[C@@](C(=O)OC)(c3cc4c(cc3OC)N(C)[C@H]3[C@@](O)(C(=O)NNC(=O)OCCSSC[C@H](NC(=O)CC[C@H](NC(=O)c5ccc(NCc6cnc7nc(N)[nH]c(=O)c7n6)cc5)C(=O)O)C(=O)O)[C@H](O)[C@]5(CC)C=CCN6CC[C@]43[C@@H]65)C2)C1` [Example 18]: the “Folate Receptor Competition” value in series [2] (summary table) is “Yes”. Further, the “competition by excess folic acid” value in series [2] was “folate competes”. At folate receptors (FRs), the “relative binding affinity versus folic acid at folic acid receptors” value is 0.13 and the “Relative Folate Receptor Affinity” value came to 0.13.

For the molecule `CC[C@]1(O)C[C@H]2CN(CCc3c([nH]c4ccccc34)[C@@](C(=O)OC)(c3cc4c(cc3OC)N(C)[C@H]3[C@@](O)(C(=O)NNC(=O)OCCSSC[C@H](NC(=O)c5ccc(NCc6cnc7nc(N)[nH]c(=O)c7n6)cc5)C(=O)O)[C@H](O)[C@]5(CC)C=CCN6CC[C@]43[C@@H]65)C2)C1` [Example 19], the “Folate Receptor Competition” value in series [2] (summary table) was “Yes”. Also, the “competition by excess folic acid” value in series [2] is listed as “folate competes”. In addition, at folate receptors (FRs), the “relative binding affinity versus folic acid at folic acid receptors” value came to 0.046 and the “Relative Folate Receptor Affinity” value came to 0.05.

As to `CC[C@]1(O)C[C@H]2CN(CCc3c([nH]c4ccccc34)[C@@](C(=O)OC)(c3cc4c(cc3OC)N(C)[C@H]3[C@@](O)(C(=O)NNC(=O)OCCSSC[C@H](NC(=O)[C@H](CC(=O)O)NC(=O)[C@H](CC(=O)O)NC(=O)[C@H](CC(=O)O)NC(=O)[C@H](CC(=O)O)NC(=O)CC[C@H](NC(=O)c5ccc(NCc6cnc7nc(N)[nH]c(=O)c7n6)cc5)C(=O)O)C(=O)O)[C@H](O)[C@]5(CC)C=CCN6CC[C@]43[C@@H]65)C2)C1` [Example 21], the “relative binding affinity versus folic acid at folic acid receptors” value at folate receptors (FRs) is 0.16. Besides, in series [1], the “weight of Balb/c mice” value is reported as “little effect on the weight of the mice; also recorded: absence of an effect”.

For the molecule `CC[C@]1(O)C[C@H]2CN(CCc3c([nH]c4ccccc34)[C@@](C(=O)OC)(c3cc4c(cc3OC)N(C)[C@H]3[C@@](O)(C(=O)NCCOC(=O)OCCSSC[C@H](NC(=O)[C@H](CC(=O)O)NC(=O)[C@H](CCCNC(=N)N)NC(=O)[C@H](CC(=O)O)NC(=O)CC[C@H](NC(=O)c5ccc(NCc6cnc7nc(N)[nH]c(=O)c7n6)cc5)C(=O)O)C(=O)O)[C@H](O)[C@]5(CC)C=CCN6CC[C@]43[C@@H]65)C2)C1` [Example 22], at folate receptors (FRs), the “relative binding affinity versus folic acid at folic acid receptors” value is given as 0.26. Further, the “weight of Balb/c mice” value in series [1] is “little effect on the weight of the mice; also recorded: absence of an effect”.

Regarding `Nc1nc2ncc(CNc3ccc(C(=O)N[C@@H](CCC(=O)O)C(=O)O)cc3)nc2c(=O)[nH]1` [folic acid, reference compound], on folate receptors (FRs), the “relative binding affinity versus folic acid at folic acid receptors” value was determined as 1.0.
